Measurements reported in patent US8895474B2, “Herbicidally active cyclopentanediones and derivatives thereof, and their use in controlling weeds” (Syngenta Limited, priority 2009, dated 2014).

Assays:
Format in all cases: in vivo
Settings in all cases: 312 h, rate 250 g/ha, evaluated after 13 days, 100=total damage to plant, 0=no damage to plant
[1] = test system: Alopecurus myosuroides (ALOMY); assay: Pre-emergence herbicidal activity, glasshouse pot test
Procedure: (§1) Seeds of a variety of test species were sown in standard soil in pots. After cultivation for one day (pre-emergence) or after 8 days cultivation (post-emergence) under controlled conditions in a glasshouse (at 24/16° C., day/night; 14 hours light; 65% humidity), the plants were sprayed with an aqueous spray solution derived from the formulation of the technical active ingredient in acetone/water (50:50) solution containing 0.5% Tween 20 (polyoxyethelyene sorbitan monolaurate, CAS RN 9005-64-5). The test plants were then grown in a glasshouse under controlled conditions in a glasshouse (at 24/16° C., day/night; 14 hours light; 65% humidity) and watered twice daily. After 13 days for pre and post-emergence, the test was evaluated (100=total damage to plant; 0=no damage to plant). Test Plants: Lolium perenne (LOLPE), Alopecurus myosuroides (ALOMY), Echinochloa crus-galli (ECHCG), and Avena fatua (AVEFA). Pre-Emergence Activity

Avena fatua (AVEFA) [2] = assay: as above
Procedure: as §1

[3] = test system: Echinochloa crus-galli (ECHCG); assay: as above
Procedure: as §1

Lolium perenne (LOLPE) [4] = assay: as above
Procedure: as §1

[5] = test system: Alopecurus myosuroides (ALOMY); assay: Post-emergence herbicidal activity, glasshouse pot test
Procedure: as §1, with “Post-Emergence” for “Pre-Emergence”

Avena fatua (AVEFA) [6] = assay: as above
Procedure: as §1, with “Post-Emergence” for “Pre-Emergence”

[7] = test system: Echinochloa crus-galli (ECHCG); assay: as above
Procedure: as §1, with “Post-Emergence” for “Pre-Emergence”

Lolium perenne (LOLPE) [8] = assay: as above
Procedure: as §1, with “Post-Emergence” for “Pre-Emergence”

| SMILES | pest or weed control at 250 g/ha [1] | pest or weed control at 250 g/ha (Avena fatua (AVEFA) [2]) | pest or weed control at 250 g/ha [3] | pest or weed control at 250 g/ha (Lolium perenne (LOLPE) [4]) | pest or weed control at 250 g/ha [5] | pest or weed control at 250 g/ha (Avena fatua (AVEFA) [6]) | pest or weed control at 250 g/ha [7] | pest or weed control at 250 g/ha (Lolium perenne (LOLPE) [8]) |
| --- | --- | --- | --- | --- | --- | --- | --- | --- |
| CCc1ccc(Oc2ccc(Cl)cc2)cc1C1=C(O)[C@H]2[C@@H](C1=O)[C@@H]1CC[C@H]2O1 [Compound A-1, meso-(1R,2S,6R,7S)-4-[5-(4-chlorophenoxy)-2-ethylphenyl]-10-oxatricyclo[5.2.1.0^2,6]decane-3,5-dione] | 70% | 70% | 70% | 70% | 100% | 80% | 100% | 80% |
| CCc1ccc(Oc2ccc(Br)cc2F)cc1C1=C(O)[C@H]2[C@@H](C1=O)[C@@H]1CC[C@H]2O1 [Compound A-2] | 60% | 30% | 60% | 60% | 100% | 100% | 100% | 100% |
| CCc1ccc(Oc2ccc(Br)cc2C)cc1C1=C(O)[C@H]2[C@@H](C1=O)[C@@H]1CC[C@H]2O1 [Compound A-3] | 60% | 30% | 90% | 70% | 90% | 90% | 100% | 70% |
| CCc1ccc(Oc2ccc(Br)cc2)cc1C1=C(O)[C@H]2[C@@H](C1=O)[C@@H]1CC[C@H]2O1 [Compound A-4] | 80% | 90% | 100% | 90% | 100% | 100% | 100% | 90% |
| CCc1ccc(Oc2ccccc2F)cc1C1=C(O)[C@H]2[C@@H](C1=O)[C@@H]1CC[C@H]2O1 [Compound A-5] | 30% | 0% | 80% | 40% | 30% | 10% | 80% | 30% |
| CCc1ccc(Oc2ccc(Cl)cc2F)cc1C1=C(O)[C@H]2[C@@H](C1=O)[C@@H]1CC[C@H]2O1 [Compound A-6] | 100% | 90% | 100% | 100% | 80% | 90% | 100% | 90% |
| CCc1ccc(Oc2cccc(Cl)c2)cc1C1=C(O)[C@H]2[C@@H](C1=O)[C@@H]1CC[C@H]2O1 [Compound A-7] | 60% | 50% | 70% | 60% | 60% | 80% | 100% | 60% |
| CCc1ccc(Oc2ccccc2Cl)cc1C1=C(O)[C@H]2[C@@H](C1=O)[C@@H]1CC[C@H]2O1 [Compound A-8] | 0% | 0% | 40% | 40% | 20% | 20% | 70% | 20% |
| CCc1ccc(Oc2ccc(Br)cc2Cl)cc1C1=C(O)[C@H]2[C@@H](C1=O)[C@@H]1CC[C@H]2O1 [Compound A-9] | 80% | 90% | 70% | 100% | 90% | 100% | 90% | 70% |
| CCc1ccc(Oc2cnc3cc(Cl)ccc3n2)cc1C1=C(O)[C@H]2[C@H]3CC[C@H](C3)[C@H]2C1=O [Compound A-10, meso-(3aS,4S,7R,7aR)-2-[5-(6-chloroquinoxalin-2-yloxy)-2-ethylphenyl]hexahydro-4,7-methanoindene-1,3-dione] | 40% | 20% | 60% | 30% | 90% | 100% | 90% | 90% |
| CCc1ccc(Oc2ncc(Cl)cc2F)cc1C1=C(O)[C@H]2[C@H]3CC[C@H](C3)[C@H]2C1=O [Compound A-11] | 30% | 50% | 100% | 80% | 80% | 90% | 100% | 70% |
| CCc1ccc(Oc2nc3ccccc3s2)cc1C1=C(O)[C@H]2[C@H]3CC[C@H](C3)[C@H]2C1=O [Compound A-12] | 60% | 30% | 70% | 70% | 100% | 50% | 100% | 70% |
| CCc1ccc(Oc2cnc3cc(Cl)ccc3n2)cc1C1=C(O)C2C(C1=O)[C@H]1CC[C@@H]2CC1 (some centres unmarked) [Compound A-13, 2-[5-(6-chloroquinoxalin-2-yloxy)-2-ethylphenyl]hexahydro-4,7-ethanoindene-1,3-dione] | 50% | 20% | 80% | 60% | 90% | 100% | 100% | 90% |
| CCc1ccc(Oc2ncc(Cl)cc2F)cc1C1=C(O)C2C(C1=O)[C@H]1CC[C@@H]2CC1 (some centres unmarked) [Compound A-14] | 60% | 60% | 100% | 90% | 100% | 100% | 100% | 90% |
| CCc1ccc(Oc2ccc(C#N)cc2)cc1C1=C(O)C2C(C1=O)[C@H]1CC[C@@H]2CC1 (some centres unmarked) [Compound A-15] | 30% | 0% | 100% | 10% | 30% | 30% | 80% | 30% |
| CCc1ccc(Oc2nc3ccccc3s2)cc1C1=C(O)C2C(C1=O)[C@H]1CC[C@@H]2CC1 (some centres unmarked) [Compound A-16] | 40% | 30% | 90% | 70% | 70% | 90% | 100% | 70% |
| CCc1ccc(Oc2ccc(Cl)c(Cl)c2)cc1C1=C(O)CCC1=O [Compound A-17, 2-[5-(3,4-dichlorophenoxy)-2-ethylphenyl]cyclopentane-1,3-dione] | 10% | 20% | 30% | 10% | 10% | 10% | 70% | 30% |
| CCc1ccc(Oc2cnc3cc(Cl)ccc3n2)cc1C1=C(O)CCC1=O [Compound A-18] | 50% | 50% | 80% | 70% | 90% | 90% | 100% | 70% |
| CCc1ccc(Oc2ncc(Cl)cc2F)cc1C1=C(O)CCC1=O [Compound A-19] | 90% | 80% | 90% | 90% | 80% | 60% | 100% | 50% |
